Experimental data: patent publication US11000033B2, “Ketone or oxime compound, and herbicide” (NISSAN CHEMICAL CORPORATION, priority 2014, dated 2021)

Experiments:
Type in all cases: in vivo
Scirpus juncoides = assay: Test Example 1: herbicidal activity, application before weed generation in submerged conditions (symbol B); conditions: application herbicide amount 320 g/ha
How it was run: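 0–5 visual score, 3 wk post-application. Submerged pots, alluvial soil, water 4 cm; seeds sown mixed, rice at 2.5 leaves transplanted. Emulsion diluted to predetermined dose, applied to water surface at sowing. 25–30 °C greenhouse.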

Setaria viridis [1] = assay: Test Example 4: herbicidal effect by soil treatment (symbol G); conditions: application herbicide amount 320 g/ha
How it was run: (§1)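 Seeds were sown in sterilized diluvial soil, covered with about 1.5 cm of soil, and the soil surface was sprayed with a water-diluted emulsion of the compound at a predetermined rate. Plants grew in a greenhouse at 25° C. to 30° C.; effects were scored visually 3 weeks after application.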

Avena fatua = assay: Test Example 4: herbicidal effect by soil treatment (symbol I); conditions: application herbicide amount 320 g/ha
How it was run: as §1

Alopecurus myosuroides [2] = assay: Test Example 4: herbicidal effect by soil treatment (symbol J); conditions: application herbicide amount 320 g/ha
How it was run: as §1

Lolium multiflorum Lam. = assay: Test Example 4: herbicidal effect by soil treatment (symbol K); conditions: application herbicide amount 320 g/ha
How it was run: as §1

Abutilon theophrasti = assay: Test Example 4: herbicidal effect by soil treatment (symbol M); conditions: application herbicide amount 320 g/ha
How it was run: as §1

Amaranthus retroflexus [3] = assay: Test Example 4: herbicidal effect by soil treatment (symbol N); conditions: application herbicide amount 320 g/ha
How it was run: as §1

Stellaria media = assay: Test Example 4: herbicidal effect by soil treatment (symbol P); conditions: application herbicide amount 320 g/ha
How it was run: as §1

Galium spurium [4] = assay: Test Example 4: herbicidal effect by soil treatment (symbol Q); conditions: application herbicide amount 320 g/ha
How it was run: as §1

corn = assay: Test Example 4: effect on crop by soil treatment (symbol c); conditions: application herbicide amount 320 g/ha
How it was run: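 The test used sterilized diluvial soil. Seed was set down in spots and overlaid with about 1.5 cm of soil before growth in a greenhouse kept at 25° C. to 30° C.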

soybean [5] = assay: Test Example 4: effect on crop by soil treatment (symbol d); conditions: application herbicide amount 320 g/ha
How it was run: (§2)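 Seeds were sown in spots on sterilized diluvial soil in a plastic box and covered with about 1.5 cm of soil. Plants were then grown in a greenhouse at 25° C. to 30° C.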

rice = assay: Test Example 4: effect on crop by soil treatment (symbol b); conditions: application herbicide amount 320 g/ha
How it was run: as §2

wheat [6] = assay: Test Example 4: effect on crop by soil treatment (symbol e); conditions: application herbicide amount 320 g/ha
How it was run: as §2

Digitaria ciliaris = assay: Test Example 5: herbicidal effect by foliage application, plastic box (symbol F); conditions: 320 g/ha, 3 weeks after application
How it was run: (§3)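 Sowing in sterilized diluvial soil, 14 days' greenhouse growth at 25° C. to 30° C., then uniform small-sprayer foliar application of aqueous emulsion dilution; plants scored three weeks afterwards.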

Setaria viridis [7] = assay: Test Example 5: herbicidal effect by foliage application, plastic box (symbol G); conditions: 320 g/ha, 3 weeks after application
How it was run: as §3

[8] = system: Echinochloa crus-galli var. crus-galli; assay: Test Example 5: herbicidal effect by foliage application, plastic box (symbol H); conditions: 320 g/ha, 3 weeks after application
How it was run: as §3

Alopecurus myosuroides [9] = assay: Test Example 5: herbicidal effect by foliage application, plastic box (symbol J); conditions: 320 g/ha, 3 weeks after application
How it was run: as §3

Amaranthus retroflexus [10] = assay: Test Example 5: herbicidal effect by foliage application, plastic box (symbol N); conditions: 320 g/ha, 3 weeks after application
How it was run: as §3

Galium spurium [11] = assay: Test Example 5: herbicidal effect by foliage application, plastic box (symbol Q); conditions: 320 g/ha, 3 weeks after application
How it was run: as §3

soybean [12] = assay: Test Example 5: effect on crop by foliage application, plastic box (symbol d); conditions: 320 g/ha, 3 weeks after application
How it was run: (§4)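 Plants were raised from seed in a greenhouse (25° C. to 30° C.) after sowing in a plastic box of sterilized diluvial soil.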

rice plant = assay: Test Example 5: effect on crop by foliage application, plastic box (symbol b); conditions: 320 g/ha, 3 weeks after application
How it was run: as §4

wheat [13] = assay: Test Example 5: effect on crop by foliage application, plastic box (symbol e); conditions: 320 g/ha, 3 weeks after application
How it was run: as §4

## COc1cc(Br)cc(C)c1C1=C(O)CC(CC(C)=O)C1=O (stereo not shown) [7-027, 2-(4-bromo-2-methoxy-6-methylphenyl)-3-hydroxy-5-(2-oxopropyl)cyclopent-2-enone]
Scirpus juncoides
  Herbicidal effect grade, B: Scirpus juncoides: 0 (Herbicidal ratio of 5% or lower (almost no effect))
Setaria viridis [1]
  Herbicidal effect grade, G: Setaria viridis: 5 (Herbicidal ratio of 90% or more (almost completely withered))
Avena fatua
  Herbicidal effect grade, I: Avena fatua: 0 (Herbicidal ratio of 5% or lower (almost no effect))
Alopecurus myosuroides [2]
  Herbicidal effect grade, J: Alopecurus myosuroides: 5 (Herbicidal ratio of 90% or more (almost completely withered))
Lolium multiflorum Lam.
  Herbicidal effect grade, K: Lolium multiflorum Lam.: 5 (Herbicidal ratio of 90% or more (almost completely withered))
Abutilon theophrasti
  Herbicidal effect grade, M: Abutilon theophrasti: 0 (Herbicidal ratio of 5% or lower (almost no effect))
Amaranthus retroflexus [3]
  Herbicidal effect grade, N: Amaranthus retroflexus: 0 (Herbicidal ratio of 5% or lower (almost no effect))
Stellaria media
  Herbicidal effect grade, P: Stellaria media: 0 (Herbicidal ratio of 5% or lower (almost no effect))
Galium spurium [4]
  Herbicidal effect grade, Q: Galium spurium: 0 (Herbicidal ratio of 5% or lower (almost no effect))
corn
  Effect on crop grade, c: corn: 3 (Herbicidal ratio of 40% or higher and lower than 70%)
Soybean [5]
  Effect on crop grade, d: soybean: 0 (Herbicidal ratio of 5% or lower (almost no effect))
rice
  Effect on crop grade, b: directly sowed rice plant: 5 (Herbicidal ratio of 90% or more (almost completely withered))
Wheat [6]
  Effect on crop grade, e: wheat: 2 (Herbicidal ratio of 20% or higher and lower than 40%)
Digitaria ciliaris
  F: Digitaria ciliaris, herbicidal effect (criteria of Test Example 1): 5 (Herbicidal ratio of 90% or more (almost completely withered))
Setaria viridis [7]
  G: Setaria viridis, herbicidal effect (criteria of Test Example 1): 5 (Herbicidal ratio of 90% or more (almost completely withered))
[8]
  H: Echinochloa crus-galli var. crus-galli, herbicidal effect (criteria of Test Example 1): 5 (Herbicidal ratio of 90% or more (almost completely withered))
Alopecurus myosuroides [9]
  J: Alopecurus myosuroides, herbicidal effect (criteria of Test Example 1): 1 (Herbicidal ratio of 5% or higher and lower than 20%)
Amaranthus retroflexus [10]
  N: Amaranthus retroflexus, herbicidal effect (criteria of Test Example 1): 0 (Herbicidal ratio of 5% or lower (almost no effect))
Galium spurium [11]
  Q: Galium spurium, herbicidal effect (criteria of Test Example 1): 0 (Herbicidal ratio of 5% or lower (almost no effect))
Soybean [12]
  d: soybean, effect on crop (criteria of Test Example 1): 0 (Herbicidal ratio of 5% or lower (almost no effect))
Rice plant
  b: directly sowed rice plant, effect on crop (criteria of Test Example 1): 3 (Herbicidal ratio of 40% or higher and lower than 70%)
Wheat [13]
  e: wheat, effect on crop (criteria of Test Example 1): 0 (Herbicidal ratio of 5% or lower (almost no effect))
